In data set [1] the target is ATP-binding cassette sub-family C member 3 (Homo sapiens, UniProt O15438). The experiment in a line: Inhibition of MRP3 (unknown origin).
Data set [2] in a line: Lipophilicity, log D of compound at pH 6.5 by shake-flask method. Conditions: buffer. It is filed as physicochemical.
A further data set deals with Bile salt export pump (Homo sapiens, UniProt O95342). In words: Inhibition of BSEP (unknown origin). The data set is classed as ADME.
The nature of data set [3]: Half life in human liver microsomes at 10 uM measured after 120 mins. The data set is classed as ADME, Microsome. (Microsomes from liver hold many membrane-bound enzymes, among them those of drug oxidation.)
The nature of data set [4]: Protein binding in CD-1 mouse plasma assessed as free fraction at 3 mg/kg, po or 1 mg/kg, iv measured up to 24 hrs by LC-MS/MS analysis. The data set is classed as ADME, organism-based.
Data set [5] is described as follows: Protein binding in Sprague-Dawley rat plasma assessed as free fraction at 3 mg/kg, po or 1 mg/kg, iv measured up to 24 hrs by LC-MS/MS analysis. It is filed as ADME, organism-based.
The next data set deals with Cytochrome P450 2C9 (Homo sapiens, UniProt P11712). In words: Inhibition of CYP2C9 (unknown origin). The data set is classed as ADME.
Chain of Cytochrome P450 2C9 (P11712 whole entry): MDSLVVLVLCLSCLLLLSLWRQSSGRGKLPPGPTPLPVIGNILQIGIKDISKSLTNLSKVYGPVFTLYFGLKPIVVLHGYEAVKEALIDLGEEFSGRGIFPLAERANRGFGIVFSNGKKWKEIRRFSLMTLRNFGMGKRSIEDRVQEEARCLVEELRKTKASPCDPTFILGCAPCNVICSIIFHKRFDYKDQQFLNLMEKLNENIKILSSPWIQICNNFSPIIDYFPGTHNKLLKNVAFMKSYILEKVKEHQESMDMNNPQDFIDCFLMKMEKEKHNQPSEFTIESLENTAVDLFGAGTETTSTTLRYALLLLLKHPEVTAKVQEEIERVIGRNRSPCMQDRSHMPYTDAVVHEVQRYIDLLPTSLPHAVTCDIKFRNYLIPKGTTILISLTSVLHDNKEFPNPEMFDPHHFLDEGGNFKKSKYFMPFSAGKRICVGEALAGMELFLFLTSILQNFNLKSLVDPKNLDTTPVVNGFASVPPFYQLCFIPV
Data set [6] is described as follows: Half life in rat liver microsomes at 10 uM measured after 120 mins. It is filed as ADME, Microsome.
A short description of data set [7]: Protein binding in human plasma assessed as free fraction at 3 mg/kg, po or 1 mg/kg, iv measured up to 24 hrs by LC-MS/MS analysis. It is filed as ADME, organism-based.
The target of data set [8] is T1, ATP-binding cassette sub-family C member 4 (Homo sapiens, UniProt O15439).
T1 sequence (O15439 whole entry): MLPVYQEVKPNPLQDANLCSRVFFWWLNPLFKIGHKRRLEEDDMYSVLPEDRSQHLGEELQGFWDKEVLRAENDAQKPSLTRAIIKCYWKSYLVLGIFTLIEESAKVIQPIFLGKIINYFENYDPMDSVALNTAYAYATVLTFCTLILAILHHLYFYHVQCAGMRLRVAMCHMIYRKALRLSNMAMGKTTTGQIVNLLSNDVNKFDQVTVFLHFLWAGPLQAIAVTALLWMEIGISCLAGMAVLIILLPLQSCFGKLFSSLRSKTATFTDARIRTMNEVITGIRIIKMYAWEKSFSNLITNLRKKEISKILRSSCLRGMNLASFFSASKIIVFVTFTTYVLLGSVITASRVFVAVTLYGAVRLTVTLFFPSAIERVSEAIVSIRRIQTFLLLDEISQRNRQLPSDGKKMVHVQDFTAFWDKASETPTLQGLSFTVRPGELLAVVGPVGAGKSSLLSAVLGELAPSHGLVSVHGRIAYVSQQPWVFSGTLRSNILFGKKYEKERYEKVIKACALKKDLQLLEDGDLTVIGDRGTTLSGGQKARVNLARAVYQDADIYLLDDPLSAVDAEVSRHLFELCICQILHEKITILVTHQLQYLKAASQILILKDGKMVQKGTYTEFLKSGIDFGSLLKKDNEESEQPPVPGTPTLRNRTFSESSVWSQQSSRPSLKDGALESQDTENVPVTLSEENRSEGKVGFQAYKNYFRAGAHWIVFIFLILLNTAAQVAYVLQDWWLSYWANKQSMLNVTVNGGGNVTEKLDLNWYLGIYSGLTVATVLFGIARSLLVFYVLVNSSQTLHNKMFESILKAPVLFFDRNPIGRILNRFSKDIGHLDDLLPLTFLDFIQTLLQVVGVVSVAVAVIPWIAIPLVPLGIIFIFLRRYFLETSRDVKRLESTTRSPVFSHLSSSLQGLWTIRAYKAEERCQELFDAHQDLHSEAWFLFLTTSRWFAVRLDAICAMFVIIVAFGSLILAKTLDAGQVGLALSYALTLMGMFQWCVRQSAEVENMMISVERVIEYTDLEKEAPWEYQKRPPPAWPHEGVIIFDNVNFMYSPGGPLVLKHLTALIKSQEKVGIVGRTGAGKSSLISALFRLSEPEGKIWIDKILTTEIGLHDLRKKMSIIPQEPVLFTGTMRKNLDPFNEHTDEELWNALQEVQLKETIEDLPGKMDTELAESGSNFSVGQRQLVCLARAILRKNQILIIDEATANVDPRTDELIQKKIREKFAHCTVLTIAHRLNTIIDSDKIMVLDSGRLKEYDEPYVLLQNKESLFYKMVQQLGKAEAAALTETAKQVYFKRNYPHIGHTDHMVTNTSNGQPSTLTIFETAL
In words: Inhibition of MRP4 (unknown origin).

In data set [9] the target is T2, Solute carrier organic anion transporter family member 1B3 (Homo sapiens, UniProt Q9NPD5).
T2 sequence (Q9NPD5 whole entry): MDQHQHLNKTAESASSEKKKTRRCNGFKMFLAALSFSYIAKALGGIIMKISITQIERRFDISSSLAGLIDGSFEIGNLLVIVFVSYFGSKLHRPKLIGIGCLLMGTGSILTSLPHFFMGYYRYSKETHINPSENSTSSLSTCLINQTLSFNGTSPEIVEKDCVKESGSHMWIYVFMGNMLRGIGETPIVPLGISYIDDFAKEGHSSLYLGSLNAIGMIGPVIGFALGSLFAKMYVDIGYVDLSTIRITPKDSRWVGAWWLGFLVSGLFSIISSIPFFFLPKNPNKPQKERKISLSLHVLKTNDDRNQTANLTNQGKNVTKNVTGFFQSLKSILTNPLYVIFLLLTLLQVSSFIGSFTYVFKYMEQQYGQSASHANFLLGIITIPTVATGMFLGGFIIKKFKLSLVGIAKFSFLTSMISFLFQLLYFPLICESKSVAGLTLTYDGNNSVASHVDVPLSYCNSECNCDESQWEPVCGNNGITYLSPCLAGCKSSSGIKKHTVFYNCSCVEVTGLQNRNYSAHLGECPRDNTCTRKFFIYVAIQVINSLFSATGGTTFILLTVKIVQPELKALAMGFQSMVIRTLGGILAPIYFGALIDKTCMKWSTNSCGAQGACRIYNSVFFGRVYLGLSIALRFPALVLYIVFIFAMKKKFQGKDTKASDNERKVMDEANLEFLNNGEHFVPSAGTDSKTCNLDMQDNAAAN
In words: Inhibition of OATP1B3 (unknown origin). It is filed as ADME.

A further data set has as its target T3, Cytochrome P450 2B6 (Homo sapiens, UniProt P20813).
T3 sequence (P20813 whole entry): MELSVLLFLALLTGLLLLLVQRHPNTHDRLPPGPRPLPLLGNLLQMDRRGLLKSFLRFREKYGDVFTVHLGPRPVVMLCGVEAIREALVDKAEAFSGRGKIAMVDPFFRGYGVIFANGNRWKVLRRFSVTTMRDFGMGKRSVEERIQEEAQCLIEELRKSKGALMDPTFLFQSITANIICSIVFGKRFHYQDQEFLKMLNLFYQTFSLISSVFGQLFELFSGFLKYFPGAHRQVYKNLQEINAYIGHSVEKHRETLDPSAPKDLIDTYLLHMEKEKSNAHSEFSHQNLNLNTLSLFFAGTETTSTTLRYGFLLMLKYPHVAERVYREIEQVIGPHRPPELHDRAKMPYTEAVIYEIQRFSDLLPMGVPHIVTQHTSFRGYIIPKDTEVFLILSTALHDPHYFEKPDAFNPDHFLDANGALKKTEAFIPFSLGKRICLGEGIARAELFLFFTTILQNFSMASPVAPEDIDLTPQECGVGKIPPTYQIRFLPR
The experiment in a line: Inhibition of CYP2B6 (unknown origin). The data set is classed as ADME.

Where only a bound is given, the exact number is not on record here.

A word on the IC50: it is the point on the concentration scale where inhibition reaches its midpoint. By logD is commonly meant the decadic logarithm of the distribution of all forms, ionised or not, between an organic phase and buffer at a given pH. A low value points to lower lipophilicity. The term half-life denotes the time needed for the level to fall by half in the phase considered. A high value points to slow decline. The term fraction unbound denotes the share of the substance not bound to proteins or other matrix.

Chain of ATP-binding cassette sub-family C member 3 (O15438 whole entry): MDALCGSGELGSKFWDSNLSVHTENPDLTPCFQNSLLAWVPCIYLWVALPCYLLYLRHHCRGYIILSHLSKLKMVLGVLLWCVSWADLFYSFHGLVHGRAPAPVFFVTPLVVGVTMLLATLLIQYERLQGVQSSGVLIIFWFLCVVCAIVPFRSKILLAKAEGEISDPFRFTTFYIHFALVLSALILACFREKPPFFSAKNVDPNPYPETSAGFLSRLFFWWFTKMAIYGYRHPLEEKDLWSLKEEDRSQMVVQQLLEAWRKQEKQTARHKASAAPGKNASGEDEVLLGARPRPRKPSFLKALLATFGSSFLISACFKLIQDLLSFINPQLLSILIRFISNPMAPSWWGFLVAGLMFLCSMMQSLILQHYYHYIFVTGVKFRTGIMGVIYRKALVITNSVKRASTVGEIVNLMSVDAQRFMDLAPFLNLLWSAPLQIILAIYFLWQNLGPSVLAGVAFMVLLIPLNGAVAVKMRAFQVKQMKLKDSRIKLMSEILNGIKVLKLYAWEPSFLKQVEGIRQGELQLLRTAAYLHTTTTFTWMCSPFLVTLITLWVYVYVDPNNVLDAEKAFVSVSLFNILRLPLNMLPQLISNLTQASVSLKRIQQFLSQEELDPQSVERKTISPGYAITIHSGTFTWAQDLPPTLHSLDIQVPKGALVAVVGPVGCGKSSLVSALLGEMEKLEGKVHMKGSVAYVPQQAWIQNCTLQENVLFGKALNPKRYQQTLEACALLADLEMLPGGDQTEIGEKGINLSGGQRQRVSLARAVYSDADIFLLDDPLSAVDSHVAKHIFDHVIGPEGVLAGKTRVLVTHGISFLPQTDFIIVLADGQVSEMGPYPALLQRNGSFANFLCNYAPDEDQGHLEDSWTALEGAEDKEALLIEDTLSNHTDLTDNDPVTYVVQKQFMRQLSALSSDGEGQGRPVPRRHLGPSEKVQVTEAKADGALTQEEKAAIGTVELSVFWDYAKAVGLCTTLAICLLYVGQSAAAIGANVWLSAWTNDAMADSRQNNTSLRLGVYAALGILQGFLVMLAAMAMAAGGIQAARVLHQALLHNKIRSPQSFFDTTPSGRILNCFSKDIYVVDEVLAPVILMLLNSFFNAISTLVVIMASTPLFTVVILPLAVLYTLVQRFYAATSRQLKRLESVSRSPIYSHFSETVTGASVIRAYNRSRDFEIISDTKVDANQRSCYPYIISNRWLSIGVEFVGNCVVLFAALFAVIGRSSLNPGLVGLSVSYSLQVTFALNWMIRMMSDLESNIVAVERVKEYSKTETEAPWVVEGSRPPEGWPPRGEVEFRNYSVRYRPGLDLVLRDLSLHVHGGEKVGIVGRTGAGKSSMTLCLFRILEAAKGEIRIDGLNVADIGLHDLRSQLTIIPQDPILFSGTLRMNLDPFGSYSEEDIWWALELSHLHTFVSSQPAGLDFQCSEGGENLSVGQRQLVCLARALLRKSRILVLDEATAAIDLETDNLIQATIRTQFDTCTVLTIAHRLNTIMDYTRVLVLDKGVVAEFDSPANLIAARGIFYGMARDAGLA
Chain of Bile salt export pump (O95342 whole entry): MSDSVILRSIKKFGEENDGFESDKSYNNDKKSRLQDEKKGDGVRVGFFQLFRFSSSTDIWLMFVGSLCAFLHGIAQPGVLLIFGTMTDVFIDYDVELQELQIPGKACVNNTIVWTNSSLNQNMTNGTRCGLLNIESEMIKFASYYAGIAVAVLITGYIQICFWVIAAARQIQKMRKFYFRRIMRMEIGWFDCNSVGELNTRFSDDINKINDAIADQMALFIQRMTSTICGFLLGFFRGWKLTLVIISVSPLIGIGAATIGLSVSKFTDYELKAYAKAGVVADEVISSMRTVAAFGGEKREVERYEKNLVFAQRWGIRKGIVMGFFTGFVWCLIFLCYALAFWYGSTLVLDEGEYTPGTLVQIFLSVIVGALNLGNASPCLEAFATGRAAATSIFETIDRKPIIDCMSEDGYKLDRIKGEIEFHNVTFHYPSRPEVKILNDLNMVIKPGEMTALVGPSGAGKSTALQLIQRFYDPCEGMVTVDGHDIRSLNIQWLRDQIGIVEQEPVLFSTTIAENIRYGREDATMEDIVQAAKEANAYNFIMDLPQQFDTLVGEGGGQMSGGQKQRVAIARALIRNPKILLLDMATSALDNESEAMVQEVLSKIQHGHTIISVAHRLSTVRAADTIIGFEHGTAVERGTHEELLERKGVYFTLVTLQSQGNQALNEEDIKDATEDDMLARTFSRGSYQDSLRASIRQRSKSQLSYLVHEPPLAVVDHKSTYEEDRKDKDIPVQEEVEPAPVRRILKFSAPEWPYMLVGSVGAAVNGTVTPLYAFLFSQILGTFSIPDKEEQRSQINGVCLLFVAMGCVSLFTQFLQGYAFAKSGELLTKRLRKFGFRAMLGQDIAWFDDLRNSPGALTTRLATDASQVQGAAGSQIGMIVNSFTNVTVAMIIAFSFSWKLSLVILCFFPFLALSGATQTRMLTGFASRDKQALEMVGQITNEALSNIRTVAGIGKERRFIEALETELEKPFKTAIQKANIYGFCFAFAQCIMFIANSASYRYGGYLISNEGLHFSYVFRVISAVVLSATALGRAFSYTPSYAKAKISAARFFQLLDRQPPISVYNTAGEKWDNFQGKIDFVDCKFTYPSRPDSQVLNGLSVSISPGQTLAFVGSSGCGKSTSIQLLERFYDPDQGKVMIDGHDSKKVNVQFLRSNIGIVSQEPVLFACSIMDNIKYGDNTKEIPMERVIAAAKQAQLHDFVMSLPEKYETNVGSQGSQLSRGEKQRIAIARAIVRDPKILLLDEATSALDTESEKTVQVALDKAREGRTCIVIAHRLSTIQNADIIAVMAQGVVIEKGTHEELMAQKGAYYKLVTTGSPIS

For the compound `Cc1nc(-c2nnn(C)c2COC(=O)N(C)CC2CCC2)ccc1O[C@H]1CCC[C@H](C(=O)O)C1`, the IC50 in data set [1] is 24 µM; at Bile salt export pump, 19.6 µM; against Cytochrome P450 2C9 it was greater than 40 µM; in data set [8], 16 µM; in [9], 2.6 µM; on Cytochrome P450 2B6, greater than 40 µM. This compound displayed a log distribution coefficient (logD) in [2] of 2.3. Also, the half-life at 10 µM in data set [3] and in data set [6] was greater than 2 h throughout. Besides, the fraction unbound at 24 h in [4] was found to be 0.1; in data set [5] it was 0.053; in data set [7], 0.033.
On to `CCCN(C)C(=O)OCc1c(-c2ccc(O[C@H]3CCC[C@H](C(=O)O)C3)c(C)n2)nnn1C` [ADMILPARANT], for which the IC50 was 66 µM in data set [1]; greater than 100 µM on Bile salt export pump; greater than 40 µM at Cytochrome P450 2C9; 47 µM in [8]; 10 µM in [9]; greater than 40 µM at Cytochrome P450 2B6. Moreover, the logD in [2] stood at 1.95. In addition, the half-life at 10 µM in [3] and in data set [6] was greater than 2 h in each case. In addition, the fraction unbound at 24 h in [4] was 0.314; in data set [5], 0.126; in [7], 0.056.
As for `Cc1noc(-c2ccc(-c3ccc(C4(C(=O)O)CC4)cc3)cc2)c1NC(=O)O[C@H](C)c1ccccc1` [BMS-986020], the IC50 in data set [1] is 22 µM; on Bile salt export pump it was 4.8 µM; on Cytochrome P450 2C9, 5.5 µM; in [8], 6.2 µM; in [9] it was 0.57 µM; against Cytochrome P450 2B6, greater than 50 µM. This compound also returned a logD in data set [2] of 3.6. The half-life at 10 µM in [3] was 1.38 h; in [6], 1.27 h. The fraction unbound at 24 h worked out at 0.006 in data set [4], 0.002 in data set [5] and 0.002 in data set [7].

(Values after ChEMBL document CHEMBL5034035, “Discovery of an Oxycyclohexyl Acid Lysophosphatidic Acid Receptor 1 (LPA1) Antagonist BMS-986278 for the Treatment of Pulmonary Fibrotic Diseases” (J Med Chem, 2021).)
